Counter-ions that a name gives are not always drawn. Some results are limits rather than exact numbers.

The test system of experiment [1] is E. coli MC4100 TetB. Kind of experiment: MIC, agar dilution (Table IA). Conditions: unit assumed. It is filed as cell-based.
Experiment [2] relates to E. coli J3272 TetD. Kind of experiment: MIC, agar dilution (Table IA). It is filed as cell-based. Conditions: unit assumed.
Experiment [3] relates to Clostridium spp. Type of experiment: cell-based. Conditions: [9] tested.
The subject of experiment [4] is Proteus spp. indole+. Kind of experiment: MIC against clinical isolates (Table V, A and O). Type of experiment: cell-based. Conditions: Proteus spp. indole+ clinical isolates, (9) tested.
Experiment [5] relates to S. aureus UBMS 90-1. Kind of experiment: In vivo antibacterial evaluation, acute lethal infection in mice. Conditions: Staphylococcus aureus, UBMS901, sc, read-out: ED50, median effective dose protecting 50% of the infected mice; mice infected with S. aureus UBMS 90-1 (tetM), single subcutaneous dosing. The text has this:
(§1) In Vivo Antibacterial Evaluation (Table VII)

In experiment [6] the test system is S. aureus UBMS 90-2. Described as above. Conditions: Staphylococcus aureus, UBMS902, sc, read-out: ED50, median effective dose protecting 50% of the infected mice; mice infected with S. aureus UBMS 90-2 (tetM), single subcutaneous dosing.
Excerpt: as §1

Experiment [7] concerns Klebsiella pneumoniae. Kind of experiment: MIC against clinical isolates (Table V, A and O). It is filed as cell-based. Conditions: Klebsiella pneumoniae clinical isolates, (10) tested.
For experiment [8], the system named is N. gonorrhoeae IL 611 (Sensitive). Kind of experiment: MIC, agar dilution. It is filed as cell-based. Conditions: Neisseria gonorrhoeae; N. gonorrhoeae IL 611 (Sensitive); read-out: MIC.

Take `CN(C)CC(=O)Nc1cc(N(C)C)c2c(c1O)C(=O)C1=C(O)[C@]3(O)C(=O)C(C(N)=O)=C(O)[C@@H](N(C)C)C3CC1C2.Cl.Cl` (stereo partly drawn) [KK, [4S-(4alpha,12aalpha)]-4,7-Bis(dimethylamino)-9-[[(dimethylamino)acetyl]amino]-1,4,4a,5,5a,6,11,12a-octahydro-3,10,12,12a-tetrahydroxy-1,11-dioxo-2-naphthacenecarboxamide dihydrochloride]: the results for the Antibacterial activity (MIC) in experiment [1] and in experiment [2] were 0.25 µg/mL and 0.12 µg/mL, respectively. The “MIC (range over isolates)” value in experiment [3] was in the range of 0.015 to 0.12 µg/mL.
On to `CN(C)c1ccc(O)c2c1C[C@H]1C[C@H]3[C@H](N(C)C)C(O)=C(C(N)=O)C(=O)[C@@]3(O)C(O)=C1C2=O` [Compound O, 7-(Dimethylamino)-6-demethyl-6-deoxytetracycline hydrochloride (minocycline hydrochloride), reference compound], for which the MIC50 amounted to 16 µg/mL in experiment [4] (read-out: MIC50) and 1 µg/mL in experiment [7] (read-out: MIC50). The MIC90 in experiment [4] (read-out: MIC90) is over 32 µg/mL; in experiment [7] (read-out: MIC90), 4 µg/mL. The median effective dose (ED50) is 1.7 mg/kg in experiment [5] and 3 mg/kg in experiment [6]. For the same compound, the MIC in experiment [8] came out at 0.5 µg/mL.

For the origin of these results see patent USRE40086E1, “Method for treating bacterial infection with novel 7-substituted-9-substituted amino 6-demethyl-6-deoxytetracyclines” (Wyeth Holdings Corporation, priority 1991, dated 2008).
